# Experimental data as given in patent publication US8710043B2, “TRPM8 antagonists and their use in treatments” (Amgen Inc., priority 2011, dated 2014).
# Molecular target: T1, human TRPM8 (Homo sapiens, UniProt Q7Z2W7)
# T1 construct: expressed in transfected cells; host or cells: Chinese hamster ovary (CHO) cells, T-REx tetracycline-inducible system, co-transfected with aequorin
# Assay: Luminescence readout assay for measuring intracellular calcium, icilin activation
# Format: cell-based
# Settings: CHO cells expressing human TRPM8, aequorin luminescence, 1 μM icilin activation; read-out: hTRPM8 IC50
# How it was run: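 The read-out was luminescence reporting intracellular calcium, recorded by a CCD-based luminometer. Compounds were preincubated for 2.5 min before agonist challenge with 1 μM icilin. Human TRPM8 was expressed in a stable T-REx CHO line, induced with 0.5 μg/mL tetracycline the day before.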
# T1 sequence (Q7Z2W7 whole entry): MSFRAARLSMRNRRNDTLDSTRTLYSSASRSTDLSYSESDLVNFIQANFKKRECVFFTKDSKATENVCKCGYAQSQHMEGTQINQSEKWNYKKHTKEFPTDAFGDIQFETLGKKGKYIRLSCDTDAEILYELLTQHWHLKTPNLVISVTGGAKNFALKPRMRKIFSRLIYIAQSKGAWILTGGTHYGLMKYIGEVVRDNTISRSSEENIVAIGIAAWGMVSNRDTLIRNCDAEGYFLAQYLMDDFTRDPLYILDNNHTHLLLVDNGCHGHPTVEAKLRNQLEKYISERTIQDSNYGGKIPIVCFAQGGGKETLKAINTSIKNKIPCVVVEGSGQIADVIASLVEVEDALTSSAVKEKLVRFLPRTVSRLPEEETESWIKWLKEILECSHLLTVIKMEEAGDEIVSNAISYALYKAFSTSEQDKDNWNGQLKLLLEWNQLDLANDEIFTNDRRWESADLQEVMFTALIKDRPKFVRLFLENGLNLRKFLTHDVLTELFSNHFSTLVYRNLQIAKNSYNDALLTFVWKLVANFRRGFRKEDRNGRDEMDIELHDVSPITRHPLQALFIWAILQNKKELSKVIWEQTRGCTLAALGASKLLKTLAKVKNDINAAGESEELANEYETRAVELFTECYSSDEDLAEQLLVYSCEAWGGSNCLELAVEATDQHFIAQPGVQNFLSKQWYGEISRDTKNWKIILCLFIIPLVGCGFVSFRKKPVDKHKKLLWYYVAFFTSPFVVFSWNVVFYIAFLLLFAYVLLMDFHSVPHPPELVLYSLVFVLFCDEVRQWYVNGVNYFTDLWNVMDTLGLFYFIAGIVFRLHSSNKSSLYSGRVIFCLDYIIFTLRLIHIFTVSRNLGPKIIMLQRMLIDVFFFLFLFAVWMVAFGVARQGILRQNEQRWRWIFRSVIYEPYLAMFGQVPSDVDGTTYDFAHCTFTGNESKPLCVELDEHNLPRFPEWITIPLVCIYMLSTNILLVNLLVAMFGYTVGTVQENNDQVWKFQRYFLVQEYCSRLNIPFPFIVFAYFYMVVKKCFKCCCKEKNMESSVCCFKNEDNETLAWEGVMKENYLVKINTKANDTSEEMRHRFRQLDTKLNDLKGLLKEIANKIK
row,Compound,IC50 [nM]
1,"CC(C)(O)c1ccc(C(=O)N[C@@H](c2ccc(C(F)(F)F)cc2)c2ncccc2C(F)(F)F)cc1 [Example 121, (S)-4-(2-hydroxypropan-2-yl)-N-((4-(trifluoromethyl)phenyl)(3-(trifluoromethyl)pyridin-2-yl)methyl)benzamide]",247
2,"O=C(N[C@@H](c1ccc(C(F)(F)F)cc1)c1ncccc1C(F)(F)F)c1cccc(Cl)c1 [Example 208, (S)-3-chloro-N-((4-(trifluoromethyl)phenyl)(3-(trifluoromethyl)pyridin-2-yl)methyl)benzamide]",41.7
3,"COc1ccc(C(=O)NC(c2ccc(C(F)(F)F)cc2)c2ncccc2F)cn1 (stereo not shown) [Example 35, N-((3-fluoropyridin-2-yl)(4-(trifluoromethyl)phenyl)methyl)-6-methoxynicotinamide]",19.6
4,"O=C(N[C@@H](c1ccc(Cl)c(F)c1)c1ncccc1F)c1ccc(=O)[nH]c1 [Example 344, (S)-N-((4-chloro-3-fluorophenyl)(3-fluoropyridin-2-yl)methyl)-6-oxo-1,6-dihydropyridine-3-carboxamide]",45.1
5,"O=C(N[C@@H](C#Cc1ccccc1)c1ncccc1C(F)(F)F)c1ccc2cccnc2c1 [Example 261, (S)-N-(3-phenyl-1-(3-(trifluoromethyl)pyridin-2-yl)prop-2-yn-1-yl)quinoline-7-carboxamide]",375
6,"O=C(N[C@@H](c1cnc2c(F)cccc2c1)c1ncccc1C(F)(F)F)c1ccc2cccnc2c1 [Example 20, (S)-N-((8-fluoroquinolin-3-yl)(3-(trifluoromethyl)pyridin-2-yl)methyl)quinoline-7-carboxamide]",187
7,"O=C(NC(c1ccc(OC(F)(F)F)c(F)c1)c1c(F)cccc1F)c1ccc(=O)[nH]c1 (stereo not shown) [Example 418, N-((2,6-difluorophenyl)(3-fluoro-4-(trifluoromethoxy)phenyl)methyl)-6-oxo-1,6-dihydropyridine-3-carboxamide]",65
8,"O=C(N[C@@H](c1ccc(C(F)(F)F)cc1)c1ncccc1F)c1ccc(=O)n(CC(F)(F)F)c1 [Example 372, (S)-N-((3-fluoropyridin-2-yl)(4-(trifluoromethyl)phenyl)methyl)-6-oxo-1-(2,2,2-trifluoroethyl)-1,6-dihydropyridine-3-carboxamide]",89.4
9,"O=C(Cc1cccnc1)N[C@@H](c1ccc(OC(F)(F)F)c(F)c1)c1ncccc1F [Example 289, (S)-N-((3-fluoro-4-(trifluoromethoxy)phenyl)(3-fluoropyridin-2-yl)methyl)-2-(pyridin-3-yl)acetamide]",1610
10,"O=C(N[C@@H](c1ccc(Cl)c(Cl)c1)c1ncccc1F)c1ccc(=O)[nH]c1 [Example 250, (S)-N-((3,4-dichlorophenyl)(3-fluoropyridin-2-yl)methyl)-6-oxo-1,6-dihydropyridine-3-carboxamide 2,2,2-trifluoroacetate]",19.2
11,"COc1ccc(C(=O)N[C@@H](c2ccc(C(F)(F)F)cc2)c2ncccc2F)cn1 [Example 46, (S)-N-((3-fluoropyridin-2-yl)(4-(trifluoromethyl)phenyl)methyl)-6-methoxynicotinamide]",12.3
12,"Cc1cccnc1[C@@H](NC(=O)c1ccc2c(c1)OCC(=O)N2)c1ccc(OC(F)(F)F)c(F)c1 [Example 357, (S)-N-((3-fluoro-4-(trifluoromethoxy)phenyl)(3-methylpyridin-2-yl)methyl)-3-oxo-3,4-dihydro-2H-benzo[b][1,4]oxazine-7-carboxamide]",46.6
13,"O=C(N[C@@H](c1ccc(F)c(F)c1)c1ncccc1F)c1ccc(=O)[nH]c1 [Example 331, (S)-N-((3,4-difluorophenyl)(3-fluoropyridin-2-yl)methyl)-6-oxo-1,6-dihydropyridine-3-carboxamide]",965
14,"O=C(N[C@@H](c1ccc(C(F)(F)F)cc1)c1ncccc1C(F)(F)F)c1ccccc1I [Example 118, (S)-2-iodo-N-((4-(trifluoromethyl)phenyl)(3-(trifluoromethyl)pyridin-2-yl)methyl)benzamide]",90.5
15,"CC(C)(C)OC(=O)N1CCCC(C(=O)N[C@@H](c2ccc(C(F)(F)F)cc2)c2ncccc2C(F)(F)F)C1 (stereo partly drawn) [Example 142, tert-butyl 3-(((S)-(4-(trifluoromethyl)phenyl)(3-(trifluoromethyl)pyridin-2-yl)methyl)carbamoyl)piperidine-1-carboxylate]",144
16,"Cn1cc(C(=O)N[C@@H](c2ccc(Cl)c(F)c2)c2ncccc2F)ccc1=O [Example 345, (S)-N-((4-chloro-3-fluorophenyl)(3-fluoropyridin-2-yl)methyl)-1-methyl-6-oxo-1,6-dihydropyridine-3-carboxamide]",102
17,"O=C(N[C@@H](c1ccc(OC(F)(F)F)c(F)c1)c1ncccc1F)c1ccc(=O)[nH]n1 [Example 349, (S)-N-((3-fluoro-4-(trifluoromethoxy)phenyl)(3-fluoropyridin-2-yl)methyl)-6-oxo-1,6-dihydropyridazine-3-carboxamide]",15.6

row,Compound,IC50 [nM]
1,"Cn1ccc(C(=O)N[C@@H](c2ccc(C(F)(F)F)cc2)c2ncccc2C(F)(F)F)cc1=O [Example 49, (S)-1-methyl-2-oxo-N-((4-(trifluoromethyl)phenyl)(3-(trifluoromethyl)pyridin-2-yl)methyl)-1,2-dihydropyridine-4-carboxamide]",127
2,"CC1(C)C[C@H]1c1cccnc1[C@@H](NC(=O)c1ccc2cccnc2c1)c1ccc(C(F)(F)F)cc1 [Example 232, N-((S)-(3-((R)-2,2-dimethylcyclopropyl)pyridin-2-yl)(4-(trifluoromethyl)phenyl)methyl)quinoline-7-carboxamide]",15.9
3,COc1ncccc1C(=O)N[C@@H](c1ccc(C(F)(F)F)cc1)c1ncccc1C(F)(F)F [Example 29],32.4
4,"O=C(N[C@@H](c1ccc(C(F)(F)F)cc1)c1ncccc1C(F)(F)F)c1ccno1 [Example 220, (S)-N-((4-(trifluoromethyl)phenyl)(3-(trifluoromethyl)pyridin-2-yl)methyl)isoxazole-5-carboxamide]",164
5,O=C(N[C@@H](c1ccc(OC(F)(F)F)cc1)c1ncccc1F)c1ccc2nccn2c1 [Example 89],10.3
6,"O=C(CN1CCOC1=O)N[C@@H](c1ccc(C(F)(F)F)cc1)c1ncccc1C(F)(F)F [Example 154, (S)-2-(2-oxooxazolidin-3-yl)-N-((4-(trifluoromethyl)phenyl)(3-(trifluoromethyl)pyridin-2-yl)methyl)acetamide]",2530
7,"Cc1cccnc1[C@@H](NC(=O)c1ccc2nccn2c1)c1ccc(C(F)(F)F)cc1 [Example 314, (S)-N-((3-methylpyridin-2-yl)(4-(trifluoromethyl)phenyl)methyl)imidazo[1,2-a]pyridine-6-carboxamide]",21.8
8,"O=C(N[C@@H](c1ccc(C(F)(F)F)cc1)c1ncccc1F)c1cccc(F)c1 [Example 187, (S)-3-fluoro-N-((3-fluoropyridin-2-yl)(4-(trifluoromethyl)phenyl)methyl)benzamide]",45.3
9,"Cn1cc(C(=O)N[C@@H](c2cc(F)cc(C(F)(F)F)c2)c2ncccc2F)ccc1=O [Example 328, (S)-N-((3-fluoro-5-(trifluoromethyl)phenyl)(3-fluoropyridin-2-yl)methyl)-1-methyl-6-oxo-1,6-dihydropyridine-3-carboxamide]",1060
10,"O=C(N[C@@H](c1ccc(C(F)(F)F)cc1)c1ncccc1F)c1ccc2nccnc2c1 [Example 170, (S)-N-((3-fluoropyridin-2-yl)(4-(trifluoromethyl)phenyl)methyl)quinoxaline-6-carboxamide]",23.5
11,"Cc1ccc(C(NC(=O)c2ccc(=O)[nH]c2)c2ccc(OC(F)(F)F)c(F)c2)nc1 (stereo not shown) [Example 424, N-((3-fluoro-4-(trifluoromethoxy)phenyl)(5-methylpyridin-2-yl)methyl)-6-oxo-1,6-dihydropyridine-3-carboxamide]",92
12,"O=C(N[C@@H](c1ccc(C(F)(F)F)cc1)c1c(F)cccc1F)c1ccc(=O)[nH]c1 [Example 258, (S)-N-((2,6-difluorophenyl)(4-(trifluoromethyl)phenyl)methyl)-6-oxo-1,6-dihydropyridine-3-carboxamide]",40.7
13,"CCn1cc(C(=O)N[C@@H](c2ccc(C(F)(F)F)cc2)c2ncccc2F)ccc1=O [Example 364, (S)-1-ethyl-N-((3-fluoropyridin-2-yl)(4-(trifluoromethyl)phenyl)methyl)-6-oxo-1,6-dihydropyridine-3-carboxamide]",15.8
14,"O=C(O)Cn1cc(C(=O)N[C@@H](c2ccc(C(F)(F)F)cc2)c2ncccc2F)ccc1=O [Example 429, (S)-2-(5-(((3-Fluoropyridin-2-yl)(4-(trifluoromethyl)phenyl)methyl)carbamoyl)-2-oxopyridin-1(2H)-yl)acetic Acid]",2660
15,"O=C(N[C@@H](c1ccc(OC(F)(F)F)c(F)c1)c1ccccn1)c1ccc2[nH]c(=O)oc2c1 [Example 391, (S)-N-((3-fluoro-4-(trifluoromethoxy)phenyl)(pyridin-2-yl)methyl)-2-oxo-2,3-dihydrobenzo[d]oxazole-6-carboxamide]",11.7
16,"CC(C)(O)Cn1cc(C(=O)N[C@@H](c2ccc(OC(F)(F)F)c(F)c2)c2ncccc2F)ccc1=O [Example 302, (S)-N-((3-fluoro-4-(trifluoromethoxy)phenyl)(3-fluoropyridin-2-yl)methyl)-1-(2-hydroxy-2-methylpropyl)-6-oxo-1,6-dihydropyridine-3-carboxamide]",70.9
17,"Cc1cc(C(=O)N[C@@H](c2ccc(OC(F)(F)F)c(F)c2)c2ncccc2F)c[nH]c1=O [Example 403, (S)-N-((3-fluoro-4-(trifluoromethoxy)phenyl)(3-fluoropyridin-2-yl)methyl)-5-methyl-6-oxo-1,6-dihydropyridine-3-carboxamide]",17.8
